Assay results: ChEMBL document CHEMBL1201862, “PubChem BioAssay data set” (2004)
Calls of active or inactive are those of the source.

Experiments:
[1] = biological target: Melanin-concentrating hormone receptor 1 (Homo sapiens, UniProt Q99705); assay: Fluorescence-based counterscreen for antagonists of the G-protein coupled receptor 7 (GPR7): cell-based high throughput dose response assay to identify antagonists of the melanin-concentrating hormone receptor 1 (MCHR1).; format: functional
[2] = biological target: Luciferin 4-monooxygenase (Photinus pyralis, UniProt P08659); assay: Counter Screen for Luciferase-based Assay Positives. [Related pubchem assays: 620, 618, 411 ]
[3] = biological target: T1, Heat shock factor protein 1 (Mus musculus, UniProt P38532); assay: inhibition of MG132-induced HSE-luciferase signal, confirmation, cell-based, NIH3T3, luminescence, dose retest (AID 2382); format: functional;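 also: NIH3T3 fibroblasts with HSF1-driven luciferase reporter stressed by proteasome inhibitor MG132; luminescence from HSF1-driven luciferase expression after 8 hours of MG132 stress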
T1 sequence (P38532 whole entry): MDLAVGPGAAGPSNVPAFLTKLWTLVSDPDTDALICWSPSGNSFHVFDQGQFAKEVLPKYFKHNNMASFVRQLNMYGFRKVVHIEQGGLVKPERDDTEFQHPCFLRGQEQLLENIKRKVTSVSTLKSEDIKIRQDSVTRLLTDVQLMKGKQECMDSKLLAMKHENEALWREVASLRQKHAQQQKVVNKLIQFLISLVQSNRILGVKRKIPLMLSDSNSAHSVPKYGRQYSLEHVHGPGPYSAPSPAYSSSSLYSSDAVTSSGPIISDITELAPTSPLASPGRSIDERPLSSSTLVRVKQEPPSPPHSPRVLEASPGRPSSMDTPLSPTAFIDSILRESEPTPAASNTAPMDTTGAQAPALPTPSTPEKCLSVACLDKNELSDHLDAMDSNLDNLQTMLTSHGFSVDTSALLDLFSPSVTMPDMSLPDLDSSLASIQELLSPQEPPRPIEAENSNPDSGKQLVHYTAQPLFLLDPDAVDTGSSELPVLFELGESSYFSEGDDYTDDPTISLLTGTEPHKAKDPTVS

[4] = Luminescence-based counterscreen assay for KLF5 inhibitors: dose response cell-based high throughput screening assay to identify cytotoxic compounds using the IEC-6 intestinal epithelial cell line. [Related pubchem assays: 1700 (Primary screen.), 1834 (Confirmation screen.), 1858 (Summary AID.), 1905 (Counterscreen.)]; format: functional
[5] = test system: HT-1080; assay: cytotoxicity in HT1080 fibrosarcoma cells, cell-based, fluorescence readout (AID 620); format: functional; settings: Homo sapiens
[6] = cytotoxicity in HEK-293T cells, dose response, cytotoxicity control for TCR NF-kB inhibitor project, luminescence, T-cell screen hits (AID 489026); format: functional, cell-based;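 also: cells exposed to compound about 14 hours before the viability readout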
[7] = biological target: T2, Microphthalmia-associated transcription factor (Homo sapiens, UniProt O75030); assay: TRPM1 promoter luciferase signal decrease, dose response, MITF inhibitor project, cell-based, SK-MEL-5, cherry-picked, set 3 (AID 493073); format: functional
T2 sequence (O75030 whole entry): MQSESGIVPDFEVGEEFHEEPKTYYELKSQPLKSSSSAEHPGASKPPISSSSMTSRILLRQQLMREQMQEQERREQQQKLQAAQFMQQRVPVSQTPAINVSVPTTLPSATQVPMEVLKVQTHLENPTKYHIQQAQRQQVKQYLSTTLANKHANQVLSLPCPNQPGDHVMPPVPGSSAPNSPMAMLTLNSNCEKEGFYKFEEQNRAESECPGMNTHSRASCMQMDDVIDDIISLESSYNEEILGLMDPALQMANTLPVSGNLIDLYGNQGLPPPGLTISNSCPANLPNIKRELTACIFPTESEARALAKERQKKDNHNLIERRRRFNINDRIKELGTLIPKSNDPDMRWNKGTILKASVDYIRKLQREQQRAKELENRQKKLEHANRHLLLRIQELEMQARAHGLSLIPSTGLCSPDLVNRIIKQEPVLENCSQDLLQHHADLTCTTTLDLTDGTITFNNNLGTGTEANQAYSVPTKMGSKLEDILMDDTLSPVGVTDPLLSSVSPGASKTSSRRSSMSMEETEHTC

[8] = Shn3 3'UTR reporter inhibitors, dose response, cell-based, Clone20 osteoblasts, firefly luciferase, cherry-picked (AID 624132); format: functional;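 also: firefly luciferase luminescence from reporter carrying the Shn3 3'UTR in osteoblasts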
[9] = inhibitors of HIV Env-driven cell fusion, dose response, cherry-pick (AID 652057); format: functional, cell-based
[10] = ZM109 Env clade C HIV-1 fusion inhibitors, dose response, HeLa effector, CEM target cells, luciferase, cherry-pick (AID 652058); format: functional, cell-based
[11] = biological target: Paired box protein Pax-8 (Homo sapiens, UniProt Q06710); assay: inhibitors of PAX8-driven TPO luciferase reporter, dose response, RMG-I cells, cherry-pick (AID 687027); format: functional, cell-based;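 also: luciferase reporter driven by Pax8 target thyroperoxidase promoter measured by SteadyGlo luminescence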
[12] = off-target signal loss in HeLa-CEM21 co-culture – HeLa F-luc CTL cells, cherry-picked, counter-screen for HIV-1 Env fusion inhibitor project, dose response (AID 652040); format: functional, cell-based;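 also: potency for signal decrease marking cytotoxic or nonspecific inhibition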
[13] = inhibitors of clade B AD8 Env fusion, dose response, cell-based, cherry-pick (AID 652062); format: functional;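 also: luciferase signal from cell-cell fusion driven by HIV-1 clade B AD8 Env; potency is for inhibitors of fusion seen as a drop in luminescence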
[14] = reduction of Shn3 3'UTR firefly luciferase signal, dose response, Schnurri-3 inhibitor project, cell-based, Clone20 osteoblasts, cherry-pick, set 2 (AID 720490); format: functional;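 also: actives lower the luminescence signal as inhibitors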
[15] = non-specific cell cytotoxicity, dose response, cytotoxicity control for PAX8 inhibitor project, plate reader, dry powder samples (AID 743021); format: functional, cell-based
[16] = NIH-3T3 fibroblast cytotoxicity, dose response, cytotoxicity control, cell-based, fluorescence, Alamar Blue, secondary assay (AID 2327); format: functional;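 also: NIH-3T3 mouse fibroblasts cultured with fluconazole at 8 µg/mL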
[17] = biological target: Serine/threonine-protein phosphatase PP1-alpha catalytic subunit (Homo sapiens, UniProt P62136); assay: PP1 phosphatase inhibitors, dose response, biochemical, fluorescence (AID 2403);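 also: phosphatase turnover of OMFP into fluorescent 3-O-methylfluorescein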
[18] = C. albicans growth with fluconazole, confirmation, fluorescence, retest (AID 2467); format: functional, cell-based
[19] = biological target: Serine/threonine-protein phosphatase (Homo sapiens, UniProt Q9BPW0); assay: Counterscreen for inhibitors of PP1: fluorescence-based biochemical high throughput dose response assay to identify inhibitors of Protein Phosphatase 5 (PP5). [Related pubchem assays: 2034 (Summary (PP5 inhibitors)), 1987 (PP5 inhibitors in singlate), 2235 (PP1 inhibitors in singlate)]
[20] = biological target: Bcl-2-like protein 10 (Homo sapiens, UniProt Q9HD36); assay: Biochemical TR3 FP assay of Bcl-B inhibitor potency, EC50 (AID 1243); format: functional
[21] = biological target: Cytochrome P450 2D6 (Homo sapiens, UniProt P10635); assay: qHTS Assay for Inhibitors and Substrates of Cytochrome P450 2D6. [Related pubchem assays: 410 ]; format: ADME; settings: read-out: Potency
Cytochrome P450 2D6, sequence (P10635 whole entry): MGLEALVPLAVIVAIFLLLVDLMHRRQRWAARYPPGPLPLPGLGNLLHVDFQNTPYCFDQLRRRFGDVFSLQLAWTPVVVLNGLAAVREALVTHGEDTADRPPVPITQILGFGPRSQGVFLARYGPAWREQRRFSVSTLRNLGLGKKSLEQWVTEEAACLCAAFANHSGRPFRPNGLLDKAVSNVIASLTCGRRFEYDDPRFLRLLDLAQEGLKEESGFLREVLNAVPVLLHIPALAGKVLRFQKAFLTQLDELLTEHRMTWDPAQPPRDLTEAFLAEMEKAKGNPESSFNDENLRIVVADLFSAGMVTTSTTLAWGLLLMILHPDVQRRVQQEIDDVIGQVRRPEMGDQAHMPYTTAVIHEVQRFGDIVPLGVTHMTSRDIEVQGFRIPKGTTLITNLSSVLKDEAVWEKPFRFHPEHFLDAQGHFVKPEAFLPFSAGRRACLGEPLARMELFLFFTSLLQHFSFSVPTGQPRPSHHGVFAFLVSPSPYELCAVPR

Serine/threonine-protein phosphatase PP1-alpha catalytic subunit, sequence (P62136 whole entry): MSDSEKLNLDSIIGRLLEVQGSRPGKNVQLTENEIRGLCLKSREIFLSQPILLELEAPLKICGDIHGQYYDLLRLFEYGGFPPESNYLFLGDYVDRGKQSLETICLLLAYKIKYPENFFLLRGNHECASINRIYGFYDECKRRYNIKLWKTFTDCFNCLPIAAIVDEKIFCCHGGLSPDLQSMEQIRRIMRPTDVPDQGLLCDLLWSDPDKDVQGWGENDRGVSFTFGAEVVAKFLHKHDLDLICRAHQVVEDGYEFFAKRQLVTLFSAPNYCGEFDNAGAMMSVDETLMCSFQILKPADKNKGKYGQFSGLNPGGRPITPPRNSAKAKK
Bcl-2-like protein 10, sequence (Q9HD36 whole entry): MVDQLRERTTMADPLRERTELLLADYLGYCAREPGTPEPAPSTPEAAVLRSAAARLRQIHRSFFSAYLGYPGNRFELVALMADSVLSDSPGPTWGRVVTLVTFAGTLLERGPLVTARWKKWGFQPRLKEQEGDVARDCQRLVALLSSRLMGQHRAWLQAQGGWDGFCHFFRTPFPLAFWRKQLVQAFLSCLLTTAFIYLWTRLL
Serine/threonine-protein phosphatase, sequence (Q9BPW0 whole entry): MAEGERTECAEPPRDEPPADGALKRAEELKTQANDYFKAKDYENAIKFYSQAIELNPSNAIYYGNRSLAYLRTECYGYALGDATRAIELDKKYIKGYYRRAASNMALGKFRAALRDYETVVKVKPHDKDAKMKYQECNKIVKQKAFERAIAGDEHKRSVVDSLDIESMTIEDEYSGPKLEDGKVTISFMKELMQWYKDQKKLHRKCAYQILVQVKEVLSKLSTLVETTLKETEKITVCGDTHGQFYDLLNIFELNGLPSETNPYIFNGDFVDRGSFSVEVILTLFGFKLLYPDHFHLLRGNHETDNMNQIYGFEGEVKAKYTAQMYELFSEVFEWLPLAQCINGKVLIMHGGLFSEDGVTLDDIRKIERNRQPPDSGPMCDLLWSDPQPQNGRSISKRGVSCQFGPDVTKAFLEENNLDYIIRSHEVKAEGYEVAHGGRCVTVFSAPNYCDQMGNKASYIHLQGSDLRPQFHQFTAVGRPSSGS
Luciferin 4-monooxygenase, sequence (P08659 whole entry): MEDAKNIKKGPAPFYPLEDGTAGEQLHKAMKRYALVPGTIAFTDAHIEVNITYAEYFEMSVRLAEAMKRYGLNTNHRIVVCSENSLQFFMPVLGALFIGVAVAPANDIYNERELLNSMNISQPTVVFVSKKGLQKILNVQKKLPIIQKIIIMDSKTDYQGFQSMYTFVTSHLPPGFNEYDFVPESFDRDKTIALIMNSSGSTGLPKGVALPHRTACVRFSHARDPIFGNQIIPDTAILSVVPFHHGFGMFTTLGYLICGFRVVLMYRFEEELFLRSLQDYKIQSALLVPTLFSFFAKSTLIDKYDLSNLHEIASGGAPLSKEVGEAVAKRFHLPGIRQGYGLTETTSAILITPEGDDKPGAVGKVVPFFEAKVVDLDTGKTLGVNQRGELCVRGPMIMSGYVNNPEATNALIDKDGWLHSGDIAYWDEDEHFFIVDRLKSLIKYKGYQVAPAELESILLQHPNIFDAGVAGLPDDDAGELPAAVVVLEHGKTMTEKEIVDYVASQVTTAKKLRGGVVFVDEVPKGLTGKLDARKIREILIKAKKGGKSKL
Melanin-concentrating hormone receptor 1, sequence (Q99705 whole entry): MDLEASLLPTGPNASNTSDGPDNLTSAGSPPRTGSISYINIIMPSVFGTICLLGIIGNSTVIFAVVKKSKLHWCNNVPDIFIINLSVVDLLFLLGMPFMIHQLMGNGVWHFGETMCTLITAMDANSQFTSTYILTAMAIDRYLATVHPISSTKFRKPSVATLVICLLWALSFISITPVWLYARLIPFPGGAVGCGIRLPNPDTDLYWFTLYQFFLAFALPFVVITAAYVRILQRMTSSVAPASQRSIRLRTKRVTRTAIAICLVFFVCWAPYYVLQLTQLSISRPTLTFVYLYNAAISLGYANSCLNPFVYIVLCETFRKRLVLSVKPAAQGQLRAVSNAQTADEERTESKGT
Paired box protein Pax-8, sequence (Q06710 whole entry, the tested form may be a part): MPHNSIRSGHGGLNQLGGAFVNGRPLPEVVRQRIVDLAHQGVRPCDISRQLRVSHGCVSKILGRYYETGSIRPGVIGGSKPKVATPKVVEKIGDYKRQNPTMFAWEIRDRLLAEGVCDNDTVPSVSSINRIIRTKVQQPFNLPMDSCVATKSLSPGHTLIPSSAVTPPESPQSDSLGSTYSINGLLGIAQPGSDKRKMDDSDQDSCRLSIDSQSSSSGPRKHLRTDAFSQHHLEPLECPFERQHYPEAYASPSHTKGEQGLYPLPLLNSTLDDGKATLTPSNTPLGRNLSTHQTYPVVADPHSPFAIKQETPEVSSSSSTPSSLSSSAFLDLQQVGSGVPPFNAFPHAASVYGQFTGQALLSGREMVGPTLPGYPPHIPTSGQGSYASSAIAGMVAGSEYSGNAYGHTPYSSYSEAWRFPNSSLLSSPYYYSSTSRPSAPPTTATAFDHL

Question: Which IC50 [1] does the source give for `CCC(C)CCN1C(Nc2ccccc2)=NC[C@@H]1Cc1ccccc1` (stereo partly specified) here?
Answer: 12.5 µM (not active)

Question: Which results are given for `Cc1ccc(C(=O)Nc2cnc3ccccc3c2)cc1`?
Answer: EC50 [2]: > 100 µM (not active); EC50 [3]: 4.76 µM (active); IC50 [4]: > 39.8 µM (not active); EC50 [5]: > 50 µM (not active); IC50 [6]: > 80 µM (inactive); AC50 [7]: 1.15 µM (active); AC50 [8]: 4.04 µM (active); AC50 [9]: 2.29 µM (active); AC50 [10]: 13.9 µM (active); AC50 [11]: 3.57 µM (active); AC50 [12]: 9.31 µM (active); AC50 [13]: 4.14 µM (active); AC50 [14]: 2.3 µM (active); AC50 [15]: 46 µM (active)

Question: With `COc1cnc(-c2ccccn2)nc1Sc1cccc(Cl)c1` as the compound, how does the EC50 [16] read?
Answer: > 160 µM (inactive)

Question: What about the IC50 [17] of the same compound?
Answer: 4.75 µM (active)

Question: And the EC50 [18]?
Answer: > 38 µM (not active)

Question: And the IC50 [19]?
Answer: > 67 µM (not active)

Question: Which EC50 [20] does the source give for `CN(C)c1ccc(NC(=O)/C=C\C(=O)O)cc1` here?
Answer: 20.4 µM (active)

Question: For `C=CCc1cccc(C2C(C)CCC3C(=O)N4C(Cc5c([nH]c6ccccc56)C4c4cc(OC)c(OC)c(OC)c4)C(=O)N32)c1` (stereo unspecified), which AC50 [21] is on record?
Answer: 3.98 µM (inconclusive)
